Tests used:
[1] = tested on: IFN-α/pSTAT5 in CD3+ cells (human PBMC); experiment: Inhibitory effect on expression of pSTAT5 in CD3+ cells using FACS detection (IFN-α stimulated); assay type: cell-based; conditions: IFN-α 30 ng/ml
Procedure: Test Example 1: The Inhibitory Effect of Compounds on the Expression of pSTAT5 in CD3+Cells Using FACS Detection
• DMSO, Sigma, Cat #D2650-100 mL, stored at room temperature. • Perm buffer III, BD Biosciences, Cat #558050, stored at 4° C. • Lyse/Fix buffer, BD Biosciences, Cat #558049, stored at room temperature. • EDTA, Invitrogen, Cat #15575-038, stored at room temperature. • PBS, Hyclone, Cat #SH30256.01, stored at 4° C. • PE Mouse Anti-Human CD3, BD Biosciences, Cat #555333, stored at 4° C. • Mouse anti-human Phosphorylation-STAT5 (pY694) (Alexa Fluor® 647 Conjugate), BD Biosciences, Cat #562076, stored at 4° C. • IFN-α, Biolegend, Cat #592702
1) On the day of experiment, the compound was prepared into a 10 mM solution with DMSO, diluted to 1.5 mM in DMSO, and then diluted to 8 gradient concentrations in 3-fold dilutions.
2) 5 μL of the diluted compound was transferred into 120 ul of DPBS solution containing 0.1% BSA.
3) Positive and negative control groups were set up, with the addition of 0.2% DMSO to the positive and negative control groups.
1) Add 0.5 million and 67.5 uL of human PBMC cells to each well of the 96-well cell culture plate.
2) Add 3.5 uL of diluted compound and mix well.
3) Incubate in a 37° C. incubator for 60 minutes.
4) Dilute IFN-alpha in DPBS containing 0.1% BSA to 600 ng/mL, and dilute PE-anti-hCD3 antibody in DPBS containing 0.1% BSA to 3 fold. After the above incubation for 60-minute, add diluted PE-anti-hCD3 antibody at 5 uL per well and add diluted IFN-α at 4 uL per well, i.e., the final concentration of IFN-α per well was 30 ng/ml.
5) Incubate in a 37° C. incubator for 30 minutes.
6) Transfer all cells to a 96-well deep well plate and add 1 mL of 37° C. preheated lysis/fix buffer.
7) Incubate at 37° C. in dark for 10 minutes.
8) Centrifuge at 600 g for 5 minutes and then discard the supernatant. Wash by adding 1 mL of PBS for twice and centrifuge.
9) Add 1 mL of Perm buffer III to the cell precipitation.
10) Incubate at 4° C. in dark for 30 minutes.
11) Centrifuge at 600 g for 5 minutes and then discard the supernatant. Wash by adding 1 mL of PBS for twice and centrifuge.
12) Dilute APC anti-human pSTAT5 antibody in staining buffer for 200 fold, and add it to cell well at 100 uL per well and mix well.
13) Incubate at room temperature for 40 minutes.
14) Wash twice by adding staining buffer with 1 mL for each well, and centrifuge at 600 g for 5 minutes.
15) Discard the supernatant, and re-suspend the cell precipitation in 300 uL of staining buffer.
16) Sample and analyze in a flow cytometer to obtain the IC50 of the samples to be tested, Table 1.

TYK2 (JH1) = TYK2 (JH1) (Homo sapiens (Human), UniProt P29597); experiment: Kinase (JH1) experiment, TYK2; assay type: biochemical; conditions: kinase domain
Procedure: 1.2. Kinase (JH1) Experiment Operation was as Follows:
1.2.1. Dissolve the compound with DMSO to a storage concentration of 10 mM.
1.2.2. Prepare a compound with a concentration of 100 times the final concentration in a compound dilution plate by diluting it from the highest concentration point for a total of 4 concentration points using a 27 times dilution method, and transfer it to the Echo plate.
1.2.3. Use an Echo instrument to pulse the compound from the Echo plate to a 384 experimental plate, thereby obtain the compound with 11 concentration points of the 3-fold dilution matrix.
1.2.4. Configure a 2× kinase working solution and add it to a 384-well experimental plate at 5 uL per well. Incubate the compound and the kinase at room temperature for 15 minutes.
1.2.5. Add 5 ul 2× substrate (containing ATP) to the 384 well plate.
1.2.6. Incubate at room temperature for 45 minutes.
1.2.7. Add the detection reagent mixture to the 384-well plate, centrifuge for 30 seconds, and incubate at room temperature for 60 minutes.
1.2.8. Read the signal values using Envision Microplate Reader (PerkinElmer).
1.3.1. Use XL-Fit software for data analysis to obtain IC50 of the compounds, see Table 2 for results.

Chain of TYK2 (JH1) (P29597 897-1176): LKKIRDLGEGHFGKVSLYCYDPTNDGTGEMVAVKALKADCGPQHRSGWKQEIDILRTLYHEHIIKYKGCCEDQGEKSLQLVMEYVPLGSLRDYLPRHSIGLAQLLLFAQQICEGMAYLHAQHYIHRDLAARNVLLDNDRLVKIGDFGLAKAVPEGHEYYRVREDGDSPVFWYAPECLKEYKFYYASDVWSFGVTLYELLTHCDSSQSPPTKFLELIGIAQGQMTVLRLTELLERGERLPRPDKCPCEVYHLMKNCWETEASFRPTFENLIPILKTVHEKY

[2H]C([2H])([2H])NC(=O)c1nnc(NC(=O)[C@@H]2CC23CC3)cc1Nc1cccc(-c2ncn(C)n2)c1OC [Compound 1R]
IC50 [1]: 6.3 nM
IC50 (TYK2 (JH1)): > 9950 nM

[2H]C([2H])([2H])NC(=O)c1nnc(NC(=O)[C@H]2CC23CC3)cc1Nc1cccc(-c2ncn(C)n2)c1OC [Compound 1S]
IC50 [1]: 4.2 nM
IC50 (TYK2 (JH1)): > 9950 nM

[2H]C([2H])([2H])NC(=O)c1nnc(NC(=O)[C@@H]2CC23CC3)cc1Nc1nccc(-c2ncn(C)n2)c1OC [Compound 2R]
IC50 [1]: 5.7 nM
IC50 (TYK2 (JH1)): > 9950 nM

[2H]C([2H])([2H])NC(=O)c1nnc(NC(=O)[C@H]2CC23CC3)cc1Nc1nccc(-c2ncn(C)n2)c1OC [Compound 2S]
IC50 [1]: 3.9 nM
IC50 (TYK2 (JH1)): > 9950 nM

[2H]C([2H])([2H])NC(=O)c1nnc(NC(=O)[C@H]2CC23CC3)cc1Nc1cccc(-c2noc(COC)n2)c1OC [Compound 3S]
IC50 [1]: 22.8 nM

[2H]C([2H])([2H])NC(=O)c1cnc(NC(=O)[C@@H]2CC23CC3)cc1Nc1cccc(-c2ncn(C)n2)c1OC [Compound 4R]
IC50 [1]: 5.3 nM
IC50 (TYK2 (JH1)): > 9950 nM

[2H]C([2H])([2H])NC(=O)c1cnc(NC(=O)[C@H]2CC23CC3)cc1Nc1cccc(-c2ncn(C)n2)c1OC [Compound 4S]
IC50 [1]: 4.1 nM
IC50 (TYK2 (JH1)): > 9950 nM

[2H]C([2H])([2H])NC(=O)c1nnc(NC(=O)C2CC23CC3)cc1Nc1nccc(-c2noc(COC)n2)c1OC (centres unmarked) [Compound 5]
IC50 [1]: 13 nM
